Tests used:
[1] = tested on: CCI-induced neuropathic hypersensitivity in male random hooded rats; test: Chronic constriction injury (CCI) model of neuropathic hypersensitivity, paw withdrawal threshold; format: in vivo, rat; conditions: 10 mgkg-1 b.i.d. PO
Description: Under isoflurane anaesthesia, the common left sciatic nerve was exposed at mid thigh level and four loose ligatures of Chromic gut tied around it. The wound was then closed and secured using suture clips. The surgical procedure was identical for the sham operated animals except the sciatic nerve was not ligated. The rats were allowed a period of seven days to recover from the surgery before behavioural testing began.

human EP4 receptors = target: T1, human EP4 receptors (Homo sapiens, UniProt P35408); test: Human EP4 Scintillation Proximity Assay (SPA), [3H]-prostaglandin E2 competition binding
T1 construct: expressed in transfected cells; host or cells: Chinese Hamster Ovary (CHO) cells infected with Semliki Forest Virus carrying an SFV-1 RNA construct with the hEP4 receptor; membranes were prepared from these cells
T1 sequence (P35408 whole entry): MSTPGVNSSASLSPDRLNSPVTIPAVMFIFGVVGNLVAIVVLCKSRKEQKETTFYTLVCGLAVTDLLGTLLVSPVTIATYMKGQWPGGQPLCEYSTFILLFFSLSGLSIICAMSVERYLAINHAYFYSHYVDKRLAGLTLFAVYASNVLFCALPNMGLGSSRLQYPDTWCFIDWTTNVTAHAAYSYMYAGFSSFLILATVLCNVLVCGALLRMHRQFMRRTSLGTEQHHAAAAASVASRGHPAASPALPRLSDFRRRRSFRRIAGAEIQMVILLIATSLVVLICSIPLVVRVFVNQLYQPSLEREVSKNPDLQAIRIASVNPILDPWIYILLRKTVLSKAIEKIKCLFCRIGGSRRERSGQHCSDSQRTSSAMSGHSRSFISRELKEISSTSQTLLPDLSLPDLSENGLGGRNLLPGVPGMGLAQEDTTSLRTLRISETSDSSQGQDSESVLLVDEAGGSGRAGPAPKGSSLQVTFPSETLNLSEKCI
Description: Quantification of radioligand binding by scintillation proximity assay (SPA) is a long-established principle. Briefly, the affinity of compounds for a receptor is assessed by the specific competition between known quantities of radiolabelled ligand and compound for that receptor. Increasing concentrations of compound reduce the amount of radiolabel that binds to the receptor. This gives rise to a diminishing scintillation signal from SPA beads coated with membranes that bear the receptor. The signal may be detected with a suitable scintillation counter and the data generated may be analysed with suitable curve-fitting software.
The human EP4 SPA assay (hereafter referred to as ‘the assay’) utilises membranes prepared from Chinese Hamster Ovary (CHO cells) infected with Semliki Forest Virus (SFV). […]
For assay, membranes expressing human EP4 receptors are diluted in a pH-buffered medium and mixed with SPA beads coated with a suitable substance to facilitate the adhesion of membranes to the beads. […] Nonspecific binding (nsb) may be determined by competition between the radiolabelled ligand and a saturating concentration of unlabelled ligand. In order to quantify the affinity of EP4 receptor ligands, compounds are diluted in a stepwise manner across the wells of a 96-well plate. […] The affinity (pKi) of the compound may be calculated from the IC50 by application of the Cheng-Prusoff correction. […]

CCOc1c2c(c(OCC)c3ccccc13)C(=O)N(c1ccc(CC(=O)O)cc1)C2 [IF, [4-(4,9-diethoxy-1-oxo-1,3-dihydro-2H-benzo[f]isoindol-2-yl)phenyl]acetic Acid]
time of chronic dosing until reversal became apparent ([1]; days 20-33 postoperative): 3 days
time of chronic dosing until reversal was maximal ([1]; days 20-33 postoperative): 1 week
effect on CCI-induced decrease in paw withdrawal threshold ([1]; dosed chronically for 14 days (days 20-33 postoperative)): reversal of the CCI-induced decrease in paw withdrawal threshold
paw withdrawal threshold following cessation of the drug treatment ([1]; after the 14-day dosing period): returned to that of the vehicle treated CCI-operated animals
Ki (human EP4 receptors): 100 nM
